Data from US20250339415A1, “DISULFIDE COMPOUNDS AS MEDICAMENTS” (CYTACOAT AB, priority 2021, published 2025).
Where “and” joins values, the source holds several entries; their conditions need not be identical. Equal values may be shown once. Where a name gives a salt, the structure may show the parent alone.

Tests used:
T-24 cells = assay: Cancer cell viability assay (XTT); assay type: cell-based, human; conditions: for % cell survival / Absorbance unit / Absorbance unit - Blank: triplicate, (hydrochloride)
Protocol: (§1) Two types of human uroepithelial cancer cells (124 and 5637) were tested in an XTT assay. “T24” cells were cultured in McCoy's 5A (Modified) Medium, Catalog number: 16600082 from GIBCO. “5637” cells were cultured in RPMI 1640 Medium, Catalog number: 21875034 from GIBCO. Different concentrations of 2-(Pyridyldithio)ethylamine (hydrochloride) (PDEA) (CAS: 106139-15-5): 12.5, 25, 50, 100 and 200 μM, were prepared in each cell culture medium.
(§2) 1. 5×10^5 cells were seeded into 24-well plate overnight at 37-degree C. in 5% CO2.
(§3) 2. 80% confluent cells were treated with 200 μl medium with different concentrations of PDEA and the control.
(§4) 3. After 24 hrs, medium (MacCoy's 5a for T24, RPMI for 5637) was removed and cells were washed 2 times with 200 μl of pre-warmed PBS/well. 200 μl (96-well) of pre-prepared fresh medium containing XTT-menadione to wells were added (mentioned below).
(§5) 4. Cells were incubated for at least 3 h at 37-degree C. Medium with XTT only in empty wells were served as background control.
(§6) 5. The supernatant was transferred to 96-well plate and the concentration were measured at 450 nm and 690 nm. 690 nm was used as a background measurement and subtracted from 450 nm value.
(§7) Menadione (172.18 g/mol, light sensitive): dissolve 1 mg/ml in absolute ethanol. XTT: 1 mg/ml dissolve in PBS, 0.2 μm filtrate sterilised, store at −20° C. (Sigma X4626). Pre-warm to 37° C. before use.
(§8) Prepare solution: Add 2.15 μl of menadione/ml (final concentration 12.5 μM 0 2.15 mg/l) to 1 ml of XTT directly before use. Prepare XTT-menadione solution equal to 20% of the culture medium volume to be tested.
(§9) Results are shown below and represented graphically in FIGS. 1 and 2. “Blank” is cell culture medium only.

5637 cells = assay: Cancer cell viability assay (XTT); assay type: cell-based, human; conditions: for % cell survival / Absorbance unit / Absorbance unit - Blank: triplicate, (hydrochloride)
Protocol: as §1, §2, §3, §4, §5, §6, §7, §8, §9

E. coli = assay: Combination therapy: Gentamycin with PDEA, visible growth; assay type: cell-based; conditions: Gentamycin 0 μg/ml
Protocol: (§10) Different concentrations of Gentamycin in Mueller Hinton were prepared in 3 different concentrations of PDEA. E. coli and S. aureus were inoculated (10^5) and were incubated O/N.
(§11) Readouts were “Clear” and “Foggy”.

S. aureus = assay: as above; assay type: cell-based; conditions: Gentamycin 0 μg/ml
Protocol: as §10, §11

Structure (SMILES): NCCSSc1ccccn1 [PDEA, 2-(Pyridyldithio)ethylamine (hydrochloride)]
- % cell survival (T-24 cells; 12.5 μM): 99.37% and 98.6% and 99.88%
- Absorbance unit (T-24 cells; 12.5 μM): 1.63 and 1.659 and 1.884
- Absorbance unit - Blank (T-24 cells; 12.5 μM): 1.429 and 1.483 and 1.686
- % cell survival (T-24 cells; 25 μM): 100.1391% and 95.0133% and 97.81%
- Absorbance unit (T-24 cells; 25 μM): 1.641 and 1.605 and 1.849
- Absorbance unit - Blank (T-24 cells; 25 μM): 1.44 and 1.429 and 1.651
- % cell survival (T-24 cells; 50 μM): 76.43% and 73.67% and 89.6327%
- Absorbance unit (T-24 cells; 50 μM): 1.3 and 1.284 and 1.711
- Absorbance unit - Blank (T-24 cells; 50 μM): 1.099 and 1.108 and 1.513
- % cell survival (T-24 cells; 100 μM): 65.3% and 80.52% and 62.09%
- Absorbance unit (T-24 cells; 100 μM): 1.14 and 1.387 and 1.246
- Absorbance unit - Blank (T-24 cells; 100 μM): 0.939 and 1.211 and 1.048
- cytotoxicity at 50 µM (T-24 cells; Homo sapiens, T-24, 50 μM PDEA, 24 hrs, read-out: cell viability reduced by): 10 to 26%
- cytotoxicity at 200 µM (T-24 cells; Homo sapiens, T-24, 200 μM PDEA, 24 hrs, read-out: cell viability reduced by): 83 to 100%
- % cell survival (5637 cells; 12.5 μM): 104.6875% and 96.65% and 91.2594%
- Absorbance unit (5637 cells; 12.5 μM): 1.229 and 1.224 and 1.119
- Absorbance unit - Blank (5637 cells; 12.5 μM): 1.072 and 1.069 and 0.971
- % cell survival (5637 cells; 25 μM): 109.082% and 103.9783% and 102.2556%
- Absorbance unit (5637 cells; 25 μM): 1.274 and 1.305 and 1.236
- Absorbance unit - Blank (5637 cells; 25 μM): 1.117 and 1.15 and 1.088
- % cell survival (5637 cells; 50 μM): 115.0391% and 99.55% and 123.5902%
- Absorbance unit (5637 cells; 50 μM): 1.335 and 1.256 and 1.463
- Absorbance unit - Blank (5637 cells; 50 μM): 1.178 and 1.101 and 1.315
- % cell survival (5637 cells; 100 μM): 83.4% and 52.8% and 57.42%
- Absorbance unit (5637 cells; 100 μM): 1.011 and 0.739 and 0.759
- Absorbance unit - Blank (5637 cells; 100 μM): 0.854 and 0.584 and 0.611
- % cell survival (5637 cells; 200 μM): 3.613% and 3.436% and 4.793%
- Absorbance unit (5637 cells; 200 μM): 0.194 and 0.193 and 0.199
- Absorbance unit - Blank (5637 cells; 200 μM): 0.037 and 0.038 and 0.051
- cytotoxicity at 100 µM (5637 cells; Homo sapiens, 100 μM PDEA, 24 hrs, read-out: cell viability reduced by): 17 to 47%
- cytotoxicity at 200 µM (5637 cells; Homo sapiens, 200 μM PDEA, 24 hrs, read-out: cell viability reduced by): 95 to 100%
- Visible growth readout (Clear/Foggy) (E. coli; PDEA 0.0125 mM): Foggy
- Visible growth readout (Clear/Foggy) (E. coli; PDEA 0.025 mM): Foggy
- Visible growth readout (Clear/Foggy) (E. coli; PDEA 0.04 mM): Clear
- Visible growth readout (Clear/Foggy) (S. aureus; PDEA 0.0125 mM): Foggy
- Visible growth readout (Clear/Foggy) (S. aureus; PDEA 0.025 mM): Foggy
- Visible growth readout (Clear/Foggy) (S. aureus; PDEA 0.05 mM): Foggy
